This passage reports EC50 results from patent US12723063B2, “GIPR-agonist compounds” (Eli Lilly and Company, priority 2019, dated 2026).

Common to all, as to assay: cAMP functional assay (HTRF) in HEK293 cells in presence of 0.1% casein
Holding throughout (format): cell-based
In general terms: Time-resolved FRET reads energy transfer from a long-lived donor to a nearby acceptor.

The target of test [1] is T1, human GLP-1 receptor (GLP-1R) (Homo sapiens, UniProt P43220).
T1 construct: expressed in transfected cells; host or cells: HEK293
T1 sequence (P43220 24-463): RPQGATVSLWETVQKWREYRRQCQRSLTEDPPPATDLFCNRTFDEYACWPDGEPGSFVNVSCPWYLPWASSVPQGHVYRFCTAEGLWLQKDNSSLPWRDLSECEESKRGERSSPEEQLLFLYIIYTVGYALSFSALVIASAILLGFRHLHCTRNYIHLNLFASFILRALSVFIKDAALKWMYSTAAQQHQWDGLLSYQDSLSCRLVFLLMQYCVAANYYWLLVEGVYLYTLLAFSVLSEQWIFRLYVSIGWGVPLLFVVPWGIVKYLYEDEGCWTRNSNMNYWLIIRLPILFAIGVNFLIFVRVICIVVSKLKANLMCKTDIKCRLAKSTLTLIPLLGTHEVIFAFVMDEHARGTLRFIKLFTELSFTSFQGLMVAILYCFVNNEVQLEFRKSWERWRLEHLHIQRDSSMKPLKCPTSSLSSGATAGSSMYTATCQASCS
The settings on record: HEK293 cells expressing human GLP-1R, geometric mean, read-out: hGLP1R cAMP Rel EC50 nM (SEM, n).

The target in test [2] is T2, human glucagon receptor (GcgR) (Homo sapiens, UniProt P47871).
T2 construct: expressed in transfected cells; host or cells: HEK293
T2 sequence (P47871 26-477): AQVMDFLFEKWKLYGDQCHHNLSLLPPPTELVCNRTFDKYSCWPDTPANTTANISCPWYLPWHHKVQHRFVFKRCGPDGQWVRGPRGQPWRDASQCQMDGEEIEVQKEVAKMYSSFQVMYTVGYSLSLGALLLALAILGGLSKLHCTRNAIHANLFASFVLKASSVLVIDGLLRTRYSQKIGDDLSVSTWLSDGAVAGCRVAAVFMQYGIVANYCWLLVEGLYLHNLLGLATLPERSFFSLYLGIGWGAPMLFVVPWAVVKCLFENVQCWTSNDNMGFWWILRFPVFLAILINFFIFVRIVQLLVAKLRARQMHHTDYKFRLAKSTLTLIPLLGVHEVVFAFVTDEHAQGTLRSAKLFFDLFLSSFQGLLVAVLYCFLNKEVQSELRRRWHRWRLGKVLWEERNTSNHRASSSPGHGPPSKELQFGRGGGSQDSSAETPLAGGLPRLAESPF
The settings on record: HEK293 cells expressing human GcgR, geometric mean, read-out: hGcgR cAMP Rel EC50 nM (SEM, n).

Test [3] deals with T3, human glucose-dependent insulinotropic peptide receptor (GIPR) (Homo sapiens, UniProt P48546).
T3 construct: expressed in transfected cells; host or cells: HEK293
T3 sequence (P48546 22-466): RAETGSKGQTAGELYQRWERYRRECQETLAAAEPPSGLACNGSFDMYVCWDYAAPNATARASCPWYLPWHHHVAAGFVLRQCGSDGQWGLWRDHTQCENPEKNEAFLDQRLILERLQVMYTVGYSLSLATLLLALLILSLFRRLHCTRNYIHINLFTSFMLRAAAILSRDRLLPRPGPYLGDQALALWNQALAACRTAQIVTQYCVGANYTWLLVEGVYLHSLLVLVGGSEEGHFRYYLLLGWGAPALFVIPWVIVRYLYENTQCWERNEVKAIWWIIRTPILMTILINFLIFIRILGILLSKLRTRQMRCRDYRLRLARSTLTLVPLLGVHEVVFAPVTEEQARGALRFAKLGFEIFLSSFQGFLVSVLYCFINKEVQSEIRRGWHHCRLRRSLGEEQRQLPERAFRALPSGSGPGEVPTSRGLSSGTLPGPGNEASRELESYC
The settings on record: HEK293 cells expressing human GIPR, geometric mean, read-out: hGIPR cAMP Rel EC50 nM (SEM, n).

*1 amine or outer side, *2 acyl side, *3 side chain or, on linkers, in order; H or OH if unused. Where a SMILES comes first, the peptide text is derived from it. Side-chain parts run from the residue outwards. [ ]: non-standard residue; d: D form. The star is where a group is joined. C20 diacid = O=C(O)CCCCCCCCCCCCCCCCCCC(=O)*; αMePhe(2-F) = C[C@](N)(Cc1ccccc1F)C(=O)O; γGlu = O=C(O)[C@H](CCC(=O)[*:2])N[*:1]; 4Pal = N[C@@H](Cc1ccncc1)C(=O)O; AEEA = NCCOCCOCC(=O)O; Aib = CC(C)(N)C(=O)O A value given as a limit tells only on which side of the number the result lay.

As a reminder, the EC50 is the concentration giving half of the maximal effect. Take `CC[C@H](C)[C@H](NC(=O)[C@H](CO)NC(=O)[C@H](Cc1ccc(O)cc1)NC(=O)[C@H](CC(=O)O)NC(=O)[C@H](CO)NC(=O)[C@@H](NC(=O)[C@](C)(Cc1ccccc1F)NC(=O)[C@@H](NC(=O)CNC(=O)[C@H](CCC(=O)O)NC(=O)C(C)(C)NC(=O)[C@@H](N)Cc1ccc(O)cc1)[C@@H](C)O)[C@@H](C)CC)C(=O)N[C@@H](C)C(=O)N[C@@H](CC(C)C)C(=O)N[C@@H](CC(=O)O)C(=O)N[C@@H](CCCCN)C(=O)N[C@H](C(=O)N[C@@H](Cc1c[nH]cn1)C(=O)N[C@@H](CCC(N)=O)C(=O)NC(C)(C)C(=O)N[C@@H](CCC(=O)O)C(=O)N[C@@H](Cc1ccccc1)C(=O)N[C@H](C(=O)N[C@@H](CC(N)=O)C(=O)N[C@@H](Cc1ccc(O)cc1)C(=O)N[C@@H](CCCCNC(=O)COCCOCCNC(=O)COCCOCCNC(=O)CC[C@H](NC(=O)CCCCCCCCCCCCCCCCCCC(=O)O)C(=O)O)C(=O)N[C@@H](CC(C)C)C(=O)N[C@@H](CCC(=O)O)C(=O)NCC(=O)NCC(=O)N1CCC[C@H]1C(=O)N[C@@H](CO)C(=O)N[C@@H](CO)C(=O)NCC(=O)N[C@@H](C)C(=O)N1CCC[C@H]1C(=O)N1CCC[C@H]1C(=O)N1CCC[C@H]1C(=O)N[C@@H](CO)C(N)=O)C(C)C)[C@@H](C)CC` [Example 95] (H-Y[Aib]EGT[αMePhe(2-F)]ISDYSIALDKIHQ[Aib]EFVNYK([AEEA-AEEA-γGlu-C20 diacid])LEGGPSSGAPPPS-NH2): the EC50 in test [1] was greater than 5000 nM; in test [2] it was greater than 5000 nM; in test [3], 0.0272 nM.

Take `CC[C@H](C)[C@H](NC(=O)[C@H](CO)NC(=O)[C@H](Cc1ccc(O)cc1)NC(=O)[C@H](CC(=O)O)NC(=O)[C@H](CO)NC(=O)[C@@H](NC(=O)[C@H](Cc1ccccc1)NC(=O)[C@@H](NC(=O)CNC(=O)[C@H](CCC(=O)O)NC(=O)C(C)(C)NC(=O)[C@@H](N)Cc1ccc(O)cc1)[C@@H](C)O)[C@@H](C)CC)C(=O)N[C@@H](C)C(=O)N[C@@H](CC(C)C)C(=O)N[C@@H](CC(=O)O)C(=O)N[C@@H](CCCCN)C(=O)N[C@H](C(=O)N[C@@H](Cc1c[nH]cn1)C(=O)N[C@@H](CCC(N)=O)C(=O)NC(C)(C)C(=O)N[C@@H](CCC(=O)O)C(=O)N[C@@H](Cc1ccccc1)C(=O)N[C@H](C(=O)N[C@@H](CC(N)=O)C(=O)N[C@@H](Cc1ccc(O)cc1)C(=O)N[C@@H](CCCCNC(=O)COCCOCCNC(=O)COCCOCCNC(=O)CC[C@H](NC(=O)CCCCCCCCCCCCCCCCCCC(=O)O)C(=O)O)C(=O)N[C@@H](CC(C)C)C(=O)N[C@@H](C)C(=O)NCC(=O)NCC(=O)N1CCC[C@H]1C(=O)N[C@@H](CO)C(=O)N[C@@H](CO)C(=O)NCC(=O)N[C@@H](C)C(=O)N1CCC[C@H]1C(=O)N1CCC[C@H]1C(=O)N1CCC[C@H]1C(=O)N[C@@H](CO)C(N)=O)C(C)C)[C@@H](C)CC` [Example 96] (H-Y[Aib]EGTFISDYSIALDKIHQ[Aib]EFVNYK([AEEA-AEEA-γGlu-C20 diacid])LAGGPSSGAPPPS-NH2): the EC50 in test [1] was greater than 5000 nM; in test [2], greater than 5000 nM; in test [3], 0.0251 nM.

With `CC[C@H](C)[C@H](NC(=O)[C@H](CO)NC(=O)[C@H](Cc1ccc(O)cc1)NC(=O)[C@H](CC(=O)O)NC(=O)[C@H](CO)NC(=O)[C@@H](NC(=O)[C@](C)(Cc1ccccc1F)NC(=O)[C@@H](NC(=O)CNC(=O)[C@H](CCC(=O)O)NC(=O)C(C)(C)NC(=O)[C@@H](N)Cc1ccc(O)cc1)[C@@H](C)O)[C@@H](C)CC)C(=O)N[C@@H](CC(C)C)C(=O)N[C@@H](CC(C)C)C(=O)N[C@@H](CC(=O)O)C(=O)N[C@@H](CCCCN)C(=O)N[C@H](C(=O)N[C@@H](Cc1c[nH]cn1)C(=O)N[C@@H](CCC(N)=O)C(=O)NC(C)(C)C(=O)N[C@@H](CC(=O)O)C(=O)N[C@@H](Cc1ccccc1)C(=O)N[C@H](C(=O)N[C@@H](CCC(=O)O)C(=O)N[C@@H](Cc1ccncc1)C(=O)N[C@@H](CCCCNC(=O)COCCOCCNC(=O)COCCOCCNC(=O)CC[C@H](NC(=O)CCCCCCCCCCCCCCCCCCC(=O)O)C(=O)O)C(=O)N[C@@H](CC(C)C)C(=O)N[C@@H](CCC(=O)O)C(=O)N[C@@H](CCC(N)=O)C(=O)NCC(=O)N1CCC[C@H]1C(=O)N[C@@H](CO)C(=O)N[C@@H](CO)C(=O)NCC(=O)N[C@@H](C)C(=O)N1CCC[C@H]1C(=O)N1CCC[C@H]1C(=O)N1CCC[C@H]1C(=O)N[C@@H](CO)C(N)=O)C(C)C)[C@@H](C)CC` [Example 121] (H-Y[Aib]EGT[αMePhe(2-F)]ISDYSILLDKIHQ[Aib]DFVE[4Pal]K([AEEA-AEEA-γGlu-C20 diacid])LEQGPSSGAPPPS-NH2), the EC50 in test [1] is greater than 5000 nM; in test [2] it was greater than 5000 nM; in test [3], 0.0196 nM.

On to `CC[C@H](C)[C@H](NC(=O)[C@H](Cc1ccccc1)NC(=O)[C@@H](NC(=O)CNC(=O)[C@H](CCC(=O)O)NC(=O)C(C)(C)NC(=O)[C@@H](N)Cc1ccc(O)cc1)[C@@H](C)O)C(=O)N[C@@H](CO)C(=O)N[C@@H](CC(=O)O)C(=O)N[C@@H](Cc1ccc(O)cc1)C(=O)N[C@@H](CO)C(=O)N[C@H](C(=O)N[C@@](C)(CC(C)C)C(=O)N[C@@H](CC(C)C)C(=O)N[C@@H](CC(=O)O)C(=O)N[C@@H](CCCN)C(=O)N[C@@H](CCCCNC(=O)COCCOCCNC(=O)COCCOCCNC(=O)CC[C@H](NC(=O)CCCCCCCCCCCCCCCCCCC(=O)O)C(=O)O)C(=O)N[C@@H](Cc1c[nH]cn1)C(=O)N[C@@H](CCC(N)=O)C(=O)NC(C)(C)C(=O)N[C@@H](CC(=O)O)C(=O)N[C@@H](Cc1ccccc1)C(=O)N[C@H](C(=O)N[C@@H](CCC(=O)O)C(=O)N[C@@H](Cc1ccncc1)C(=O)N[C@@H](CC(C)C)C(=O)N[C@@H](CC(C)C)C(=O)N[C@@H](CCC(=O)O)C(=O)N[C@@H](C)C(=O)NCC(=O)N1CCC[C@H]1C(=O)N[C@@H](CO)C(=O)N[C@@H](CO)C(=O)NCC(=O)N[C@@H](C)C(=O)N1CCC[C@H]1C(=O)N1CCC[C@H]1C(=O)N1CCC[C@H]1C(=O)N[C@@H](CO)C(N)=O)C(C)C)[C@@H](C)CC` [Example 4], for which the EC50 was greater than 5000 nM in test [1], 1690 nM in test [2] and 0.0182 nM in test [3].

In the case of `CC[C@H](C)[C@H](NC(=O)[C@H](CCCN)NC(=O)[C@H](CC(=O)O)NC(=O)[C@H](CC(C)C)NC(=O)[C@](C)(CC(C)C)NC(=O)[C@@H](NC(=O)[C@H](CO)NC(=O)[C@H](Cc1ccc(O)cc1)NC(=O)[C@H](CC(=O)O)NC(=O)[C@H](CO)NC(=O)[C@@H](NC(=O)[C@H](Cc1ccccc1)NC(=O)[C@@H](NC(=O)CNC(=O)[C@H](CCC(=O)O)NC(=O)C(C)(C)NC(=O)[C@@H](N)Cc1ccc(O)cc1)[C@@H](C)O)[C@@H](C)CC)[C@@H](C)CC)C(=O)N[C@@H](Cc1c[nH]cn1)C(=O)N[C@@H](CCC(N)=O)C(=O)NC(C)(C)C(=O)N[C@@H](CC(=O)O)C(=O)N[C@@H](Cc1ccccc1)C(=O)N[C@H](C(=O)N[C@@H](CCC(=O)O)C(=O)N[C@@H](Cc1ccc(O)cc1)C(=O)N[C@@H](CCCCNC(=O)COCCOCCNC(=O)COCCOCCNC(=O)CC[C@H](NC(=O)CCCCCCCCCCCCCCCCCCC(=O)O)C(=O)O)C(=O)N[C@@H](CC(C)C)C(=O)N[C@@H](CCC(=O)O)C(=O)NCC(=O)NCC(=O)N1CCC[C@H]1C(=O)N[C@@H](CO)C(=O)N[C@@H](CO)C(=O)NCC(=O)N[C@@H](C)C(=O)N1CCC[C@H]1C(=O)N1CCC[C@H]1C(=O)N1CCC[C@H]1C(=O)N[C@@H](CO)C(N)=O)C(C)C` [Example 6], the EC50 in test [1] was greater than 5000 nM; in test [2], greater than 5000 nM; in test [3] it was 0.0176 nM.

`CC[C@H](C)[C@H](NC(=O)[C@H](CO)NC(=O)[C@H](Cc1ccc(O)cc1)NC(=O)[C@H](CC(=O)O)NC(=O)[C@H](CO)NC(=O)[C@@H](NC(=O)[C@](C)(Cc1ccccc1F)NC(=O)[C@@H](NC(=O)CNC(=O)[C@H](CCC(=O)O)NC(=O)C(C)(C)NC(=O)[C@@H](N)Cc1ccc(O)cc1)[C@@H](C)O)[C@@H](C)CC)C(=O)N[C@@H](C)C(=O)N[C@@H](CC(C)C)C(=O)N[C@@H](CC(=O)O)C(=O)N[C@@H](CCCCN)C(=O)N[C@@H](CCCCNC(=O)COCCOCCNC(=O)COCCOCCNC(=O)CC[C@H](NC(=O)CCCCCCCCCCCCCCCCCCC(=O)O)C(=O)O)C(=O)N[C@@H](Cc1c[nH]cn1)C(=O)N[C@@H](CCC(N)=O)C(=O)NC(C)(C)C(=O)N[C@@H](CCC(=O)O)C(=O)N[C@@H](Cc1ccccc1)C(=O)N[C@H](C(=O)N[C@@H](CC(N)=O)C(=O)N[C@@H](Cc1c[nH]c2ccccc12)C(=O)N[C@@H](CC(C)C)C(=O)N[C@@H](CC(C)C)C(=O)N[C@@H](C)C(=O)NCC(=O)NCC(=O)N1CCC[C@H]1C(=O)N[C@@H](CO)C(=O)N[C@@H](CO)C(=O)NCC(=O)N[C@@H](C)C(=O)N1CCC[C@H]1C(=O)N1CCC[C@H]1C(=O)N1CCC[C@H]1C(=O)N[C@@H](CO)C(N)=O)C(C)C` [Example 26] (H-Y[Aib]EGT[αMePhe(2-F)]ISDYSIALDKK([AEEA-AEEA-γGlu-C20 diacid])HQ[Aib]EFVNWLLAGGPSSGAPPPS-NH2): the half-maximal effective concentration (EC50) in test [1] is 5.69 nM; in test [2], greater than 5000 nM; in test [3], 0.00991 nM.
